In PubChem BioAssay (NCI):
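How tested: cells in 96-well plates exposed to compound for 48 hours at five concentrations. Abbreviation: GI50, concentration required for 50% inhibition of growth. At the TGI there is no net growth.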

Key:
Assay in all cases: NCI tumour cell line growth inhibition, 48 h
NCI-H23 lung = system: NCI-H23 lung
ACHN renal = system: ACHN renal
UO-31 renal = system: UO-31 renal
PC-3 prostate = system: PC-3 prostate
IGROV1 ovarian = system: IGROV1 ovarian
NCI/ADR-RES ovarian = system: NCI/ADR-RES ovarian
KM12 colon = system: KM12 colon
SW-620 colon = system: SW-620 colon
EKVX NSCLC = system: EKVX NSCLC
T-47D breast = system: T-47D breast
SF-268 CNS = system: SF-268 CNS
TK-10 renal = system: TK-10 renal
NCI-H522 lung = system: NCI-H522 lung
SK-MEL-2 melanoma = system: SK-MEL-2 melanoma
HCT-116 colon = system: HCT-116 colon
BT-549 breast = system: BT-549 breast
K-562 leukemia = system: K-562 leukemia
UACC-62 melanoma = system: UACC-62 melanoma
SN12C renal = system: SN12C renal
RXF 393 renal = system: RXF 393 renal
MDA-MB-231 breast = system: MDA-MB-231 breast
LOX IMVI melanoma = system: LOX IMVI melanoma
A498 renal = system: A498 renal
MALME-3M melanoma = system: MALME-3M melanoma
DU-145 prostate = system: DU-145 prostate
SK-OV-3 ovarian = system: SK-OV-3 ovarian
M14 melanoma = system: M14 melanoma
SK-MEL-28 melanoma = system: SK-MEL-28 melanoma
NCI-H226 lung = system: NCI-H226 lung
SR leukemia = system: SR leukemia
NCI-H460 lung = system: NCI-H460 lung
OVCAR-3 ovarian = system: OVCAR-3 ovarian
SF-295 CNS = system: SF-295 CNS
MDA-MB-435 = system: MDA-MB-435
A549 NSCLC = system: A549 NSCLC
HS 578T breast = system: HS 578T breast
HCC-2998 colon = system: HCC-2998 colon
SK-MEL-5 melanoma = system: SK-MEL-5 melanoma
786-0 renal = system: 786-0 renal
RPMI-8226 leukemia = system: RPMI-8226 leukemia
OVCAR-5 ovarian = system: OVCAR-5 ovarian
OVCAR-8 ovarian = system: OVCAR-8 ovarian
HOP-92 NSCLC = system: HOP-92 NSCLC
HCT-15 colon = system: HCT-15 colon
MCF7 breast = system: MCF7 breast
SF-539 CNS = system: SF-539 CNS
UACC-257 melanoma = system: UACC-257 melanoma
CCRF-CEM leukemia = system: CCRF-CEM leukemia
SNB-19 CNS = system: SNB-19 CNS
CAKI-1 renal = system: CAKI-1 renal
SNB-75 CNS = system: SNB-75 CNS
MOLT-4 leukemia = system: MOLT-4 leukemia
HT29 colon = system: HT29 colon
U251 CNS = system: U251 CNS
COLO 205 colon = system: COLO 205 colon
HOP-62 NSCLC = system: HOP-62 NSCLC
HL-60(TB) leukemia = system: HL-60(TB) leukemia
OVCAR-4 ovarian = system: OVCAR-4 ovarian

Structure (SMILES): COc1cc2nccc(Oc3ccc(NC(=O)C4(C(=O)Nc5ccc(F)cc5)CC4)cc3)c2cc1OC(=O)c1ccc(N)cc1
- GI50 (NCI-H23 lung): 1.98 µM
- TGI (NCI-H23 lung): > 100 µM
- GI50 (ACHN renal): 3.73 µM
- TGI (ACHN renal): > 100 µM
- GI50 (UO-31 renal): 1.58 µM
- TGI (UO-31 renal): 6.58 µM
- GI50 (PC-3 prostate): 2.5 µM
- TGI (PC-3 prostate): > 100 µM
- GI50 (IGROV1 ovarian): 6.92 µM
- TGI (IGROV1 ovarian): > 100 µM
- GI50 (NCI/ADR-RES ovarian): 3.74 µM
- TGI (NCI/ADR-RES ovarian): > 100 µM
- GI50 (KM12 colon): 0.0936 µM
- TGI (KM12 colon): > 100 µM
- GI50 (SW-620 colon): 2.92 µM
- TGI (SW-620 colon): > 100 µM
- GI50 (EKVX NSCLC): 5.31 µM
- TGI (EKVX NSCLC): > 100 µM
- GI50 (T-47D breast): 2.92 µM
- TGI (T-47D breast): > 100 µM
- GI50 (SF-268 CNS): 1.63 µM
- TGI (SF-268 CNS): > 100 µM
- GI50 (TK-10 renal): 6.62 µM
- TGI (TK-10 renal): > 100 µM
- GI50 (NCI-H522 lung): 2.65 µM
- TGI (NCI-H522 lung): > 100 µM
- GI50 (SK-MEL-2 melanoma): 2.38 µM
- TGI (SK-MEL-2 melanoma): 14.5 µM
- GI50 (HCT-116 colon): 3.08 µM
- TGI (HCT-116 colon): > 100 µM
- GI50 (BT-549 breast): 2.88 µM
- TGI (BT-549 breast): > 100 µM
- GI50 (K-562 leukemia): 1.09 µM
- TGI (K-562 leukemia): 4.91 µM
- GI50 (UACC-62 melanoma): 2.85 µM
- TGI (UACC-62 melanoma): > 100 µM
- GI50 (SN12C renal): 1.39 µM
- TGI (SN12C renal): > 100 µM
- GI50 (RXF 393 renal): 0.314 µM
- TGI (RXF 393 renal): 1.99 µM
- GI50 (MDA-MB-231 breast): 1.98 µM
- TGI (MDA-MB-231 breast): 6.53 µM
- GI50 (LOX IMVI melanoma): 1.92 µM
- TGI (LOX IMVI melanoma): 5.31 µM
- GI50 (A498 renal): 2.03 µM
- TGI (A498 renal): 4.53 µM
- GI50 (MALME-3M melanoma): 2.47 µM
- TGI (MALME-3M melanoma): > 100 µM
- GI50 (DU-145 prostate): 3.48 µM
- TGI (DU-145 prostate): > 100 µM
- GI50 (SK-OV-3 ovarian): 2.95 µM
- TGI (SK-OV-3 ovarian): 8.05 µM
- GI50 (M14 melanoma): 2.79 µM
- TGI (M14 melanoma): > 100 µM
- GI50 (SK-MEL-28 melanoma): 1.34 µM
- TGI (SK-MEL-28 melanoma): 5.16 µM
- GI50 (NCI-H226 lung): 3.11 µM
- TGI (NCI-H226 lung): > 100 µM
- GI50 (SR leukemia): 0.626 µM
- TGI (SR leukemia): > 100 µM
- GI50 (NCI-H460 lung): 3.49 µM
- TGI (NCI-H460 lung): 54.2 µM
- GI50 (OVCAR-3 ovarian): 4.36 µM
- TGI (OVCAR-3 ovarian): > 100 µM
- GI50 (SF-295 CNS): 0.262 µM
- TGI (SF-295 CNS): 1.47 µM
- GI50 (MDA-MB-435): 2.18 µM
- TGI (MDA-MB-435): > 100 µM
- GI50 (A549 NSCLC): 3.11 µM
- TGI (A549 NSCLC): > 100 µM
- GI50 (HS 578T breast): 0.29 µM
- TGI (HS 578T breast): 2.07 µM
- GI50 (HCC-2998 colon): 3.88 µM
- TGI (HCC-2998 colon): > 100 µM
- GI50 (SK-MEL-5 melanoma): 4.46 µM
- TGI (SK-MEL-5 melanoma): > 100 µM
- GI50 (786-0 renal): 1.81 µM
- TGI (786-0 renal): 4.45 µM
- GI50 (RPMI-8226 leukemia): 2.66 µM
- TGI (RPMI-8226 leukemia): > 100 µM
- GI50 (OVCAR-5 ovarian): 2.23 µM
- TGI (OVCAR-5 ovarian): > 100 µM
- GI50 (OVCAR-8 ovarian): 5.77 µM
- TGI (OVCAR-8 ovarian): > 100 µM
- GI50 (HOP-92 NSCLC): 0.2 µM
- TGI (HOP-92 NSCLC): 2.42 µM
- GI50 (HCT-15 colon): 2.17 µM
- TGI (HCT-15 colon): > 100 µM
- GI50 (MCF7 breast): 1.72 µM
- TGI (MCF7 breast): > 100 µM
- GI50 (SF-539 CNS): 0.246 µM
- TGI (SF-539 CNS): 2.04 µM
- GI50 (UACC-257 melanoma): 4.91 µM
- TGI (UACC-257 melanoma): > 100 µM
- GI50 (CCRF-CEM leukemia): 2.6 µM
- TGI (CCRF-CEM leukemia): > 100 µM
- GI50 (SNB-19 CNS): 3.05 µM
- TGI (SNB-19 CNS): > 100 µM
- GI50 (CAKI-1 renal): 2.68 µM
- TGI (CAKI-1 renal): > 100 µM
- GI50 (SNB-75 CNS): 0.199 µM
- TGI (SNB-75 CNS): 1.39 µM

Structure (SMILES): [N-]=[N+]=Nc1cccc(-c2n[nH]c(Cl)cc2=O)c1
- TGI (NCI-H23 lung): > 100 µM
- TGI (ACHN renal): > 100 µM
- TGI (MOLT-4 leukemia): > 100 µM
- TGI (PC-3 prostate): > 100 µM
- TGI (IGROV1 ovarian): > 100 µM
- TGI (NCI/ADR-RES ovarian): > 100 µM
- TGI (KM12 colon): > 100 µM
- TGI (SW-620 colon): > 100 µM
- TGI (EKVX NSCLC): > 100 µM
- TGI (T-47D breast): > 100 µM
- TGI (SF-268 CNS): > 100 µM
- TGI (TK-10 renal): > 100 µM
- TGI (NCI-H522 lung): > 100 µM
- TGI (HT29 colon): > 100 µM
- TGI (HCT-116 colon): > 100 µM
- TGI (BT-549 breast): > 100 µM
- TGI (K-562 leukemia): > 100 µM
- TGI (UACC-62 melanoma): > 100 µM
- TGI (SN12C renal): > 100 µM
- TGI (RXF 393 renal): > 100 µM
- TGI (MDA-MB-231 breast): > 100 µM
- TGI (LOX IMVI melanoma): > 100 µM
- TGI (U251 CNS): > 100 µM
- TGI (A498 renal): > 100 µM
- TGI (MALME-3M melanoma): > 100 µM
- TGI (DU-145 prostate): > 100 µM
- TGI (SK-OV-3 ovarian): > 100 µM
- TGI (M14 melanoma): > 100 µM
- TGI (SK-MEL-28 melanoma): > 100 µM
- TGI (COLO 205 colon): > 100 µM
- TGI (NCI-H226 lung): > 100 µM
- TGI (HOP-62 NSCLC): > 100 µM
- TGI (SR leukemia): > 100 µM
- TGI (NCI-H460 lung): > 100 µM
- TGI (OVCAR-3 ovarian): > 100 µM
- TGI (SF-295 CNS): > 100 µM
- TGI (MDA-MB-435): > 100 µM
- TGI (A549 NSCLC): > 100 µM
- TGI (HS 578T breast): > 100 µM
- TGI (HCC-2998 colon): > 100 µM
- TGI (786-0 renal): > 100 µM
- TGI (HL-60(TB) leukemia): > 100 µM
- TGI (RPMI-8226 leukemia): > 100 µM
- TGI (OVCAR-8 ovarian): > 100 µM
- TGI (HOP-92 NSCLC): > 100 µM
- TGI (OVCAR-4 ovarian): > 100 µM
- TGI (HCT-15 colon): > 100 µM
- TGI (MCF7 breast): > 100 µM
- TGI (SF-539 CNS): > 100 µM
- TGI (UACC-257 melanoma): > 100 µM
- TGI (CCRF-CEM leukemia): > 100 µM
- TGI (SNB-75 CNS): > 100 µM
